# Earlier results, collected in article PMC7004521 (Cancer Science, 2019).
# Test system: other kinases
# Conditions: large panels of biochemical and binding assays; cited from earlier work
structure (smiles),measurement,value
CNC(=O)c1ccc(-c2cnc3ncc(Cc4ccc5ncccc5c4)n3n2)cc1F [capmatinib],selectivity versus other kinases,highly selective versus other kinases
